Usually IC50 stands for the concentration that gives 50% inhibition.

Common to all, as to assay type: biochemical
Experiment [1] addresses SIK1 (Homo sapiens, UniProt P57059). Briefly: Enzymatic activity assay SIK1, RapidFire mass spectrometry (phosphorylation of CHK-peptide). The following applies: RapidFire MS, inhibition of SIK1; read-out: SIK1 RF IC50. The protocol:
(§1) Assay description SIK1-3, RapidFire:
(§2) In the presence of SIK2 (resp. SIK1 or SIK3) and ATP the CHK-peptide ([…] with C-terminal arginine amide modification) were phosphorylated at one of the four feasible serine's. Only one phosphorylation is observed under the assay conditions. 60 nl of each compound dilution series (12 point; dilution factor 3, generally 30 μM to 170 pM) in DMSO were transferred by acoustic dispensing to the assay plate and 30 min pre-incubated (ambient temperature) after the addition of 5 μl SIK1 (5 nM) resp. 5 μl SIK2 (0.5 nM) or 7 μl SIK3 (1.5 nM) in assay-buffer (12.5 mM HEPES (pH 7.0), 10 mM magnesium acetate, 0.005% BSA). 10 μM CHK-peptide solution and 5 μl 100 μM ATP for SIK1 & SIK2 resp. 3 μl for SIK3 in assay-buffer were added and incubated ambient for 45 min. 40 μl 0.125% formic acid in water were added to quench the reaction. RapidFire (RF) Mass Spectrometry was utilized for data generation as described below. The multiple charged species (3-5 charges) for the phosphorylated and non-phosphorylated form measured by MRM (Multiple Reaction Monitoring; API5000 or 6500+) or EIC (Extracted Ion Current; QToF) were summed up and the ratio calculated (sum phosphorylated species/sum all species) for data evaluation. Normalization was performed by Genedata software based on the non-inhibition control DMSO and the commercially available SIK inhibitor @ 1 μM YKL-05-099 (CAS number 1936529-65-5). The results of the assay are expressed in half-maximal inhibitory concentrations (IC50s) and are summarized below in Table 1.
(§3) Samples were aspirated by vacuum for max. 600 ms and loaded to C4-cartridge (Agilent; #G9203A) for 3000 ms@1.5 ml/min with 0.1% formic acid in water. Afterwards samples were transferred to the APT5000 (APT6500+) or QToF mass spectrometer for 4000 ms@1.25 ml/min with 90% acetonitrile; 10% water; 0.007% TFA; 0.093 formic acid. The cartridge was reconditioned for additional 500 ms with 0.1% formic acid in water
(§4) All MS analyses using the following MS-setup in MRM mode: Electrospray positive; Ion Spray Voltage: 4000V; Temperature: 550° C.; Collision Gas: 5; Curtain Gas: 15; Gas1: 40; Gas 2: 42; EP: 10
(§5) MS-Setup Agilent QToF 6545
(§6) All MS analyses using the following MS-setup in Mode MS: Dual AJS Electrospray positive; VCap: 3000V; Drying & Sheath gas: 340° C.@81/min; Nebulizer: 60 psig; Nozzle Voltage: 2000V; Fragmentor: 130V; Skimmer: 35V; Oct1 RF Vpp: 700V; Ref masses on@5spectra/s

Experiment [2] concerns the target SIK3 (Homo sapiens, UniProt Q9Y2K2). Description: Enzymatic activity assay SIK3, RapidFire mass spectrometry (phosphorylation of CHK-peptide). The following applies: RapidFire MS, inhibition of SIK3; read-out: SIK3 RF IC50. The protocol: as §1, §2, §3, §4, §5, §6
Experiment [3] concerns the target SIK2 (Homo sapiens, UniProt Q9H0K1). Description: Enzymatic activity assay SIK2, RapidFire mass spectrometry (phosphorylation of CHK-peptide). The following applies: RapidFire MS, inhibition of SIK2; read-out: SIK2 RF IC50. The protocol:
as §1
as §2, with “Only one phosphorylation is observed under the assay conditions. 60 nl of each compound dilution series (12 point; dilution factor 3, generally 30 μM to 170 pM) in DMSO were transferred by acoustic dispensing to the assay plate and 30 min pre-incubated (ambient temperature) after the addition of 5 μl SIK1 (5 nM) resp.” left out, “1936529-65-5).” for “1936529-65-5). The results of the assay are expressed in half-maximal inhibitory concentrations (IC50s) and are summarized below in Table 1.”
as §3, §4, §5, §6

SIK1, sequence (P57059 whole entry): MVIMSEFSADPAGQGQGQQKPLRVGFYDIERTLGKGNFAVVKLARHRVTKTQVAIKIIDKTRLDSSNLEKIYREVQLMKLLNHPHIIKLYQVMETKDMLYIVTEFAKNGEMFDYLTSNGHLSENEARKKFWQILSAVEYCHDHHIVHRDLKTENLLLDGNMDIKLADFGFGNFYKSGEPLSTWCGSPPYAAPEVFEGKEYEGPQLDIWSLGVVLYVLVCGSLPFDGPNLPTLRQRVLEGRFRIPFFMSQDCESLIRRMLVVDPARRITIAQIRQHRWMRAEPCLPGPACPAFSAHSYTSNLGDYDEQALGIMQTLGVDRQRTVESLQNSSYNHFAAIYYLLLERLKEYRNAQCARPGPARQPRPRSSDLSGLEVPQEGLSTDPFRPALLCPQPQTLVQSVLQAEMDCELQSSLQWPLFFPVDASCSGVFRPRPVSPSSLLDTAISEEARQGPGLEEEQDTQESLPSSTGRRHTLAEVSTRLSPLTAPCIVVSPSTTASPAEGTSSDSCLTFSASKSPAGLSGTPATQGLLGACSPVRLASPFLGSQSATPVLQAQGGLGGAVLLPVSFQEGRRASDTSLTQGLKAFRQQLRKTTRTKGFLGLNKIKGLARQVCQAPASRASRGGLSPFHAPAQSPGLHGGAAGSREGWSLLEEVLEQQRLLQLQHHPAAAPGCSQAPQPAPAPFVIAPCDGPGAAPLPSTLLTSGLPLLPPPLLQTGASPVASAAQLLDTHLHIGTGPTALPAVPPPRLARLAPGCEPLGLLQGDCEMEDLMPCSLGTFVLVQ
SIK3, sequence (Q9Y2K2 whole entry): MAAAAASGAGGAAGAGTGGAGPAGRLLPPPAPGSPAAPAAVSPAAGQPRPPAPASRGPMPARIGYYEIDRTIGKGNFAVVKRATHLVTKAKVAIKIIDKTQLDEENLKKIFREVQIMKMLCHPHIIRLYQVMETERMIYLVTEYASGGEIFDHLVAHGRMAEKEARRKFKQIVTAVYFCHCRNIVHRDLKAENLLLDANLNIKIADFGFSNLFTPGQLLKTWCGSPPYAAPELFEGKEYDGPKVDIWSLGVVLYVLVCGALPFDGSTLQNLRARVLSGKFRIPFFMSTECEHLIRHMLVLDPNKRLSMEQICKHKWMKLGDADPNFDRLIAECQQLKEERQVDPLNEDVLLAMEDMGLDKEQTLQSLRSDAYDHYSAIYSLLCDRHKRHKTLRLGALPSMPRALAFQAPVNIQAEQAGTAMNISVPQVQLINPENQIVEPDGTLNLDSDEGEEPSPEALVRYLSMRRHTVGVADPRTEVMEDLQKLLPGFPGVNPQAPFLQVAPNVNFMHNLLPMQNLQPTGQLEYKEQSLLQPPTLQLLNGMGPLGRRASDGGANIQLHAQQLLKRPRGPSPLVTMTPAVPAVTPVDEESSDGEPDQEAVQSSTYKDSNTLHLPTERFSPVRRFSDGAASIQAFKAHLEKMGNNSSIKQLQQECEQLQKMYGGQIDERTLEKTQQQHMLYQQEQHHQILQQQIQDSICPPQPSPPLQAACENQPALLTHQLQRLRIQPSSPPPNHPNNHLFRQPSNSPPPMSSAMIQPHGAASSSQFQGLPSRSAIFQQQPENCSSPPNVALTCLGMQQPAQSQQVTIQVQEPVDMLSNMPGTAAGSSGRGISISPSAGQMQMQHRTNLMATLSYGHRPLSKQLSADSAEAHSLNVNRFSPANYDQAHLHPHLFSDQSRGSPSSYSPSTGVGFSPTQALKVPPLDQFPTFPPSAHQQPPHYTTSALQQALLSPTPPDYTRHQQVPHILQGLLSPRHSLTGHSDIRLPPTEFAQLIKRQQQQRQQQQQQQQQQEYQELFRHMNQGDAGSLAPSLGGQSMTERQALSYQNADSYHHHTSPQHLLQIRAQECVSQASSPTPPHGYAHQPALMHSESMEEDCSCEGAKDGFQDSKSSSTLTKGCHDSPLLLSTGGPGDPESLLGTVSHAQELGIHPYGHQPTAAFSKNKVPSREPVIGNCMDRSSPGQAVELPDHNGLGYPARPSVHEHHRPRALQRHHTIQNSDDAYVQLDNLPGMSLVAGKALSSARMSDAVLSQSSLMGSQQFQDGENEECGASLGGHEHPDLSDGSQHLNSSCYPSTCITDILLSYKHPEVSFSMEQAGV
SIK2, sequence (Q9H0K1 whole entry): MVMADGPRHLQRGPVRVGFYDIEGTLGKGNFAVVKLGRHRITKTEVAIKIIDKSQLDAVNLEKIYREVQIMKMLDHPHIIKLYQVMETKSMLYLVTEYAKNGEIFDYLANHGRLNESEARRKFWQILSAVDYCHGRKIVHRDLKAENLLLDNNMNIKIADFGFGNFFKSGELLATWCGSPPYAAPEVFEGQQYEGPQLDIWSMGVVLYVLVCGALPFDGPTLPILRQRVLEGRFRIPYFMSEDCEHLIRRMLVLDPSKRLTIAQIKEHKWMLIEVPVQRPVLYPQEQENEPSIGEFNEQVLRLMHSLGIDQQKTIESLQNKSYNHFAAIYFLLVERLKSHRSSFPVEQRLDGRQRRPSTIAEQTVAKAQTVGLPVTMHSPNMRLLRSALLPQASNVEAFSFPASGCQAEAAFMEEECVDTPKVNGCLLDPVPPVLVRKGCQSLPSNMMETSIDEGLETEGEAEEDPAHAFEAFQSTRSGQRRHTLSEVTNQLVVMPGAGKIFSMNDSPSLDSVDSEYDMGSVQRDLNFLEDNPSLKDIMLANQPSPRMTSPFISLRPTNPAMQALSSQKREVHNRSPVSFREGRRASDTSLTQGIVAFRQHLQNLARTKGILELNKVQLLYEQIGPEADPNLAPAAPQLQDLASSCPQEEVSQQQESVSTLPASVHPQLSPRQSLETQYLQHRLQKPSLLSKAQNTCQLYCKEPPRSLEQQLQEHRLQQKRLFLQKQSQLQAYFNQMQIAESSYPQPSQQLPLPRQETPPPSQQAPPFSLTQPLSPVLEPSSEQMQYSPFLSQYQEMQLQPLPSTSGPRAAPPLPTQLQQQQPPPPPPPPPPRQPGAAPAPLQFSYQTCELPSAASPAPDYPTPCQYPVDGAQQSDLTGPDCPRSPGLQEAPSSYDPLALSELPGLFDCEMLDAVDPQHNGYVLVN

“1-[6-[5-[[5-(azetidin-1-yl)pyridazin-3-yl]amino]-6-fluoro-benzimidazol-1-yl]-2-[3-(difluoromethyl)-5-methyl-pyrazol-1-yl]-3-pyridyl]ethanol [Example 390]”: the IC50 in experiment [1] is 5890 nM; in experiment [2], 16 nM; in experiment [3] it was 27.2 nM.
Turning to “1-[6-[6-fluoro-5-[(5-fluoro-6-methyl-3-pyridyl)amino] benzimidazol-1-yl]-3-(1-hydroxyethyl)-2-pyridyl]-5-methyl-pyrazole-3-carbonitrile [Example 389]”, the IC50 in experiment [1] worked out at 42 nM; in experiment [2], 5.1 nM; in experiment [3] it was 7.9 nM.
With `Cc1ccc(Nc2ccc3c(c2)ncn3-c2ccc(C(C)O)c(N3CC[C@H]4NCC[C@@H]43)n2)nn1` (mixture of isomers) [Example 127, 1-[6-[5-[(6-Methylpyridazin-3-yl)amino]benzimidazol-1-yl]-2-[rac-trans-2,3,3a,5,6,6a-hexahydro-1H-pyrrolo[3,2-b]pyrrol-4-yl]-3-pyridyl]ethanol], the half-inhibitory concentration (IC50) in experiment [1] worked out at 457 nM; in experiment [2] it was 15.5 nM; in experiment [3], 13.7 nM.
For `Cc1cc(C#N)nn1-c1nc(-n2cnc3cc(F)c(N[C@@H]4CNC[C@@H]4F)cc32)ccc1C(C)O` (stereo in doubt) [Example 188, 1-[6-[5-fluoro-6-[[(3R,4S)-4-fluoropyrrolidin-3-yl]amino]benzimidazol-1-yl]-3-(1-hydroxyethyl)pyridin-2-yl]-5-methylpyrazole-3-carbonitrile], the IC50 is 87 nM in experiment [1], 213 nM in experiment [2] and 70 nM in experiment [3].
Consider `COc1cc2ncn(-c3ccc(CO)c(-c4cccc(Cl)c4)n3)c2cc1OC` [Example 1, (2-(3-chlorophenyl)-6-(5,6-dimethoxy-1H-benzo[d]imidazol-1-yl)pyridin-3-yl)methanol], for which the results for the IC50 in experiment [1], in experiment [2] and in experiment [3] were 152 nM, 358 nM and 105 nM, respectively.
Take `COc1cc2ncn(-c3ccc(CO)c(-c4cccc(Cl)c4F)n3)c2cc1OC` [Example 15, (2-(3-Chloro-2-fluorophenyl)-6-(5,6-dimethoxy-1H-benzo[d]imidazol-1-yl)pyridin-3-yl)methanol]: the values for the IC50 in experiment [1], in experiment [2] and in experiment [3] were 18 nM, 55.4 nM and 12.8 nM, respectively.
Consider `COc1cc2ncn(-c3ccc(CO)c(-c4ccc(F)cc4OC)n3)c2cc1OC` [Example 16, (6-(5,6-Dimethoxy-1H-benzo[d]imidazol-1-yl)-2-(4-fluoro-2-methoxyphenyl)pyridin-3-yl)methanol], for which the IC50 in experiment [1] amounted to 692 nM; in experiment [2], 2180 nM; in experiment [3], 313 nM.
For `COc1cc2ncn(-c3ccc(C(C)O)c(-c4ccc(F)cc4OC)n3)c2cc1OC` (centres unmarked) [Example 17, 1-(6-(5,6-Dimethoxy-1H-benzo[d]imidazol-1-yl)-2-(4-fluoro-2-methoxyphenyl)pyridin-3-yl)ethan-1-ol], the IC50 in experiment [1] was 327 nM; in experiment [2] it was 1140 nM; in experiment [3], 155 nM.
Taken in the same sequence, the figures for `CCC(O)c1ccc(-n2cnc3cc(OC)c(OC)cc32)nc1-c1ccc(F)cc1OC` (centres unmarked) [Example 18, 1-(6-(5,6-Dimethoxy-1H-benzo[d]imidazol-1-yl)-2-(4-fluoro-2-methoxyphenyl)pyridin-3-yl)propan-1-ol] were 1000 nM, 2880 nM and 988 nM.
Taken in the same sequence, the figures for `COc1cc2ncn(-c3ccc(C(C)O)c(-c4cccc(Cl)c4)n3)c2cc1OC` (centres unmarked) [Example 19, 1-(2-(3-Chlorophenyl)-6-(5,6-dimethoxy-1H-benzo[d]imidazol-1-yl)pyridin-3-yl)ethan-1-ol] were 68 nM, 116 nM and 26.5 nM.
For `COc1cc2ncn(-c3ccc(C(C)O)c(-c4cccc(Cl)c4F)n3)c2cc1OC` (centres unmarked) [Example 20, 1-(2-(3-Chloro-2-fluorophenyl)-6-(5,6-dimethoxy-1H-benzo[d]imidazol-1-yl)pyridin-3-yl)ethan-1-ol], the IC50 in experiment [1] turned out to be 12 nM; in experiment [2] it was 19.8 nM; in experiment [3], 5 nM.
On to `COc1cc2ncn(-c3ccc([C@H](C)O)c(-c4ccc(F)cc4OC)n3)c2cc1OC` [Example 21, (S)-1-(6-(5,6-Dimethoxy-1H-benzo[d]imidazol-1-yl)-2-(4-fluoro-2-methoxyphenyl)pyridin-3-yl)ethan-1-ol], for which the IC50 in experiment [1] is 192 nM; in experiment [2], 543 nM; in experiment [3], 135 nM.
As to `COc1cc2ncn(-c3ccc([C@@H](C)O)c(-c4ccc(F)cc4OC)n3)c2cc1OC` [Example 22, (R)-1-(6-(5,6-Dimethoxy-1H-benzo[d]imidazol-1-yl)-2-(4-fluoro-2-methoxyphenyl)pyridin-3-yl)ethan-1-ol], the IC50 amounted to 970 nM in experiment [1], 4480 nM in experiment [2] and 849 nM in experiment [3].
Turning to `COc1cc2ncn(-c3ccc(C(O)C4CC4)c(-c4ccc(F)cc4OC)n3)c2cc1OC` (centres unmarked) [Example 23, Cyclopropyl(6-(5,6-dimethoxy-1H-benzo[d]imidazol-1-yl)-2-(4-fluoro-2-methoxyphenyl)pyridin-3-yl)methanol], the figures for the IC50 in experiment [1], in experiment [2] and in experiment [3] were 3640 nM, 9010 nM and 3880 nM, respectively.
For the compound `CCC(O)c1ccc(-n2cnc3cc(OC)c(OC)cc32)nc1-c1cccc(Cl)c1` (centres unmarked) [Example 24, 1-(2-(3-Chlorophenyl)-6-(5,6-dimethoxy-1H-benzo[d]imidazol-1-yl)pyridin-3-yl)propan-1-ol], the IC50 in experiment [1] is 353 nM; in experiment [2], 727 nM; in experiment [3], 192 nM.
Consider `Cc1ccc(Nc2ccc3c(c2)ncn3-c2ccc(C(C)O)c(-n3nc(C#N)cc3C)n2)nn1` (centres unmarked) [Example 64, 1-[3-(1-Hydroxyethyl)-6-[5-[(6-methylpyridazin-3-yl)amino]benzimidazol-1-yl]-2-pyridyl]-5-methyl-pyrazole-3-carbonitrile], for which the IC50 was 59 nM in experiment [1] and 0.6 nM in experiment [2].
Turning to `Cc1ccc(Nc2ccc3c(c2)ncn3-c2ccc([C@H](C)O)c(-n3nc(C#N)cc3C)n2)nn1` [Example 109, 5-Methyl-1-[6-[5-[(6-methylpyridazin-3-yl)amino]benzimidazol-1-yl]-3-[(1S)-1-hydroxyethyl]-2-pyridyl]pyrazole-3-carbonitrile], the IC50 in experiment [1] was found to be 1800 nM; in experiment [2], 18.6 nM.
Consider `Cc1ccc(Nc2ccc3c(c2)ncn3-c2ccc([C@@H](C)O)c(-n3nc(C#N)cc3C)n2)nn1` [Example 110, 5-Methyl-1-[6-[5-[(6-methylpyridazin-3-yl)amino]benzimidazol-1-yl]-3-[(1R)-1-hydroxyethyl]-2-pyridyl]pyrazole-3-carbonitrile], for which the IC50 in experiment [1] amounted to 26 nM; in experiment [2], 0.2 nM.
With `Cc1ccc(Nc2ccc3c(c2)ncn3-c2ccc(C(C)O)c(-c3cccnc3-c3cn[nH]c3)n2)nn1` (centres unmarked) [Example 186, 1-[6-[5-[(6-Methylpyridazin-3-yl)amino]benzimidazol-1-yl]-2-[2-(1H-pyrazol-4-yl)-3-pyridyl]-3-pyridyl]ethanol], the IC50 came out at 1060 nM in experiment [2] and 1240 nM in experiment [3].

The values above are taken from patent US20240383875A1, “Benzimidazole Pyridine Derivatives” (Hoffmann-La Roche Inc., priority 2022, published 2024).
